Key:
[1] = system: Escherichia coli 0-111; experiment: Test for antimicrobial activity (turbidity): growth inhibiting concentration of antibiotics; assay type: cell-based
Experimental: (§1) Precultures of test microorganisms to be used in the tests described hereunder were prepared in such a manner that: from the frozen preservation of dispersions of test microorganisms, a loop of the respective strains of the microorganisms were taken out and spread onto TRI PETIT CASE SOYA AGAR MEDIA (by BBL Company), and incubated at 37° C. for 16 hours; the colonies grown on the culture media were scraped by a platinum loop and cultivated in 2.1% Mueller-Hington Broth (by Difco Company) respectively for several hours at 37° C. The resultant microbial cultures at logarithmic phase in 3×10^8 /ml of microbial concentration were used as the precultures.
(§2) The test media to be used in the respective tests were prepared in such a manner that: aqueous solutions in a predetermined concentration of the lactoferrin hydrolysates or the lactoferrin-derived antimicrobial peptides of (1) and (2) in Preparation of Samples (supra), as well as the samples of antibiotics of (3) (supra) were respectively sterilized with filters (by Advantec Company); then a quantity of the resultant solutions of respective samples were selectively added to a quantity of basal medium (Mueller-Hington Broth) prepared in the eventual concentration of 2.1%, thereby combinations of the samples and their concentrations in the respective test media were adjusted as specified in the respective tests.
(§3) Antimicrobial activity was examined as follows: A quantity of the respective precultures prepared in (1) immediately above was diluted with 2.1% Mueller-Hington Broth to result in 2×10^6 /ml of microbial concentration; 100 μl aliquots of the resultant liquid were added to 100 μl aliquots of one of the test media as specified in the respective test; the resultant media were incubated at 37° C. for 16 hours; then the turbidity of the resultant culture broths were measured thereby antimicrobial activity was examined.
(§4) Components in the test and control media and eventual concentrations thereof were adjusted by properly combining 0 mg, 0.4 mg, 1.6 mg and 6.4 mg/ml of lactoferrin hydrolysate of (1) (in Preparation of Samples, supra). or 0 μg, 16 μg, 64 μg, and 256 μg/ml of lactoferrin-derived antimicrobial peptides of (2) (in Preparation of Samples, supra), and 0 μg, 0.01 μg, 0.1 μg, 1 μg, and 10 μg/ml of antibiotics of (3) (supra), then antimicrobial activity of the combined use of the components against Escherichia coli 0-111 and Staphylococcus aureus (JCM2151) as well as growth inhibiting concentrations of the antibiotics were investigated.

[2] = system: Staphylococcus aureus JCM2151; experiment: as above; assay type: cell-based; conditions: for MIC: Staphylococcus aureus
Experimental: as §1, §2, §3, §4

[3] = antimicrobial peptide (Seq. ID No. 27) 0 μg/ml
[4] = antimicrobial peptide (Seq. ID No. 27) 16 μg/ml
[5] = antimicrobial peptide (Seq. ID No. 27) 64 μg/ml
[6] = antimicrobial peptide (Seq. ID No. 27) 256 μg/ml
[7] = lactoferrin hydrolysate 0 mg/ml
[8] = lactoferrin hydrolysate 0.4 mg/ml
[9] = lactoferrin hydrolysate 1.6 mg/ml
[10] = lactoferrin hydrolysate 6.4 mg/ml
[11] = Escherichia coli, 0111, antimicrobial peptide (Seq. ID No. 27) 0 μg/ml
[12] = Escherichia coli, 0111, antimicrobial peptide (Seq. ID No. 27) 16 μg/ml
[13] = Escherichia coli, 0111, antimicrobial peptide (Seq. ID No. 27) 64 μg/ml
[14] = Escherichia coli, 0111, antimicrobial peptide (Seq. ID No. 27) 256 μg/ml
[15] = JCM2151, antimicrobial peptide (Seq. ID No. 27) 0 μg/ml
[16] = JCM2151, antimicrobial peptide (Seq. ID No. 27) 16 μg/ml
[17] = JCM2151, antimicrobial peptide (Seq. ID No. 27) 64 μg/ml
[18] = JCM2151, antimicrobial peptide (Seq. ID No. 27) 256 μg/ml

Row | Molecule | Growth inhibiting Concentration of antibiotics [1, 3] | Growth inhibiting Concentration of antibiotics [1, 4] | Growth inhibiting Concentration of antibiotics [1, 5] | Growth inhibiting Concentration of antibiotics [1, 6] | Growth inhibiting Concentration of antibiotics [1, 7] | Growth inhibiting Concentration of antibiotics [1, 8] | Growth inhibiting Concentration of antibiotics [1, 9] | Growth inhibiting Concentration of antibiotics [1, 10] | Growth inhibiting Concentration of antibiotics [2, 7] | Growth inhibiting Concentration of antibiotics [2, 8] | Growth inhibiting Concentration of antibiotics [2, 9] | Growth inhibiting Concentration of antibiotics [2, 10] | MIC [1, 11] | MIC [1, 12] | MIC [1, 13] | MIC [1, 14] | MIC [2, 15] | MIC [2, 16] | MIC [2, 17] | MIC [2, 18] | also measured
1 | CN(C)[C@@H]1C(=O)C(C(N)=O)=C(O)[C@@]2(O)C(=O)C3=C(O)c4c(O)cccc4C(C)(O)[C@H]3C[C@@H]12 (some centres unmarked) [hostacyclin] | 1 µg/mL | 1 µg/mL | 1 µg/mL | 0.1 µg/mL | 1 µg/mL | 1 µg/mL | 1 µg/mL | 0.1 µg/mL | 1 µg/mL | 1 µg/mL | 1 µg/mL | 0.1 µg/mL |  |  |  |  |  |  |  |  | Growth inhibiting Concentration of antibiotics [2, 3]: 1 µg/mL; Growth inhibiting Concentration of antibiotics [2, 4]: 1 µg/mL; Growth inhibiting Concentration of antibiotics [2, 5]: 1 µg/mL; Growth inhibiting Concentration of antibiotics [2, 6]: 0.1 µg/mL
2 | NC[C@H]1O[C@H](O[C@H]2[C@H](O)[C@@H](O[C@H]3O[C@H](CO)[C@@H](O)[C@H](N)[C@H]3O)[C@H](N)C[C@@H]2N)[C@H](O)[C@@H](O)[C@@H]1O [kanamycin] |  |  |  |  | > 1 µg/mL | > 1 µg/mL | 1 µg/mL | 0.1 µg/mL | > 1 µg/mL | > 1 µg/mL | > 1 µg/mL | 0.1 µg/mL | > 1 µg/mL | > 1 µg/mL | 1 µg/mL | 0.01 µg/mL | > 1 µg/mL | > 1 µg/mL | 1 µg/mL | 0.01 µg/mL | 
3 | polymyxin B | > 1 µg/mL | > 1 µg/mL | 0.1 µg/mL | 0.1 µg/mL | > 1 µg/mL | > 1 µg/mL | 0.1 µg/mL | 0.01 µg/mL | > 1 µg/mL | 0.1 µg/mL | 0.1 µg/mL | 0.1 µg/mL |  |  |  |  |  |  |  |  | Growth inhibiting Concentration of antibiotics [2, 3]: > 1 µg/mL; Growth inhibiting Concentration of antibiotics [2, 4]: 0.1 µg/mL; Growth inhibiting Concentration of antibiotics [2, 5]: 0.1 µg/mL; Growth inhibiting Concentration of antibiotics [2, 6]: 0.1 µg/mL
4 | O=C(N[C@H](CO)[C@H](O)c1ccc([N+](=O)[O-])cc1)C(Cl)Cl [chloramphenicol] |  |  |  |  | > 1 µg/mL | > 1 µg/mL | > 1 µg/mL | 0.1 µg/mL | > 1 µg/mL | > 1 µg/mL | > 1 µg/mL | 1 µg/mL | > 1 µg/mL | > 1 µg/mL | 1 µg/mL | 0.1 µg/mL | > 1 µg/mL | > 1 µg/mL | 1 µg/mL | 1 µg/mL | 
5 | gentamicin | 1 µg/mL | 1 µg/mL | 0.1 µg/mL | 0.1 µg/mL | 1 µg/mL | 1 µg/mL | 0.1 µg/mL | 0.1 µg/mL | 1 µg/mL | 0.1 µg/mL | 0.1 µg/mL | 0.1 µg/mL |  |  |  |  |  |  |  |  | Growth inhibiting Concentration of antibiotics [2, 3]: 1 µg/mL; Growth inhibiting Concentration of antibiotics [2, 4]: 0.1 µg/mL; Growth inhibiting Concentration of antibiotics [2, 5]: 0.1 µg/mL; Growth inhibiting Concentration of antibiotics [2, 6]: 0.1 µg/mL
6 | CC1(C)S[C@@H]2[C@H](NC(=O)[C@H](N)c3ccccc3)C(=O)N2[C@H]1C(=O)O [ampicillin] |  |  |  |  | > 1 µg/mL | 1 µg/mL | 1 µg/mL | 0.01 µg/mL | > 1 µg/mL | 1 µg/mL | 1 µg/mL | 0.1 µg/mL | > 1 µg/mL | 1 µg/mL | 1 µg/mL | 0.1 µg/mL | > 1 µg/mL | 1 µg/mL | 1 µg/mL | 0.1 µg/mL | 
7 | CC(=O)OCC1=C(C(=O)O)N2C(=O)[C@@H](NC(=O)Cc3cccs3)[C@H]2SC1 [cephalothin] |  |  |  |  | > 1 µg/mL | > 1 µg/mL | 1 µg/mL | 0.01 µg/mL | > 1 µg/mL | 1 µg/mL | 1 µg/mL | 0.01 µg/mL | > 1 µg/mL | > 1 µg/mL | 1 µg/mL | 0.01 µg/mL | > 1 µg/mL | 1 µg/mL | 1 µg/mL | 0.01 µg/mL | 
8 | COc1cccc(OC)c1C(=O)N[C@@H]1C(=O)N2[C@@H]1SC(C)(C)[C@@H]2C(=O)O [staphcillin] |  |  |  |  | > 1 µg/mL | > 1 µg/mL | > 1 µg/mL | 0.1 µg/mL | > 1 µg/mL | > 1 µg/mL | > 1 µg/mL | 0.1 µg/mL | > 1 µg/mL | > 1 µg/mL | 1 µg/mL | 0.01 µg/mL | > 1 µg/mL | > 1 µg/mL | 1 µg/mL | 0.01 µg/mL | 
